Assay [1] concerns DIO mice, obesity model (OM). As to the kind of experiment: Body weight in mice that had already developed obesity (obesity model, OM). Particulars: OM (post-obese) mice. The format is in vivo. On the procedure:
FIG. 5A-F: IP Post-obese Body Weight. Relative body weight measurements for IP injected post-obese mice. G-H: Body weight change. Changes in body weight compared using HFD control group as baseline value. A1-F1: GTT. Blood glucose levels of peptide groups at endpoint, post-glucose injection (after 16 h fasting). A2-F2: ITT. Blood glucose levels of peptide groups at endpoint, post-insulin injection (after 6 h fasting).
FIG. 6A-F: SC Post-obese Body Weight. Relative body weight measurements for SC injected post-obese mice. G-H: Body weight change. Changes in body weight compared using HFD control group as baseline value. A1-D1,F1: GTT. Blood glucose levels of peptide groups at endpoint, post-glucose injection (after 16 h fasting). A2-D2,F2: ITT. Blood glucose levels of peptide groups at endpoint, post-insulin injection (after 6 h fasting).
FIG. 8A-F: Oral/Feeding Post-obese Body Weight. Relative body weight measurements for orally administered post-obese mice. A1-F1: GTT. Blood glucose levels at endpoint, post-glucose injection (after 16 h fasting). A2-F2: ITT. Blood glucose levels at endpoint, post-insulin injection (after 6 h fasting).
(§1) In the first phase, peptides were tested on pre-obese mice that were being fed high fat diet (HFD) to induce obesity (obesity progression model, OPM). In the second phase, these peptides were given to mice that had already developed obesity (obesity model, OM). […] As the activity of these three peptides varies depending on the injection route and the disease status, all three peptides, GGR, RAK, and AKD, were tested by oral administration.
The second phase signified the post-obesity stage, where the same methods from phase 1 were used on OM mice.

The test system of assay [2] is DIO mice, obesity progression model (OPM). As to the kind of experiment: Body weight in pre-obese mice fed high fat diet (obesity progression model, OPM). Type of assay: in vivo. The settings on record: for anti-obesity efficacy (body weight): oral administration. On the procedure:
FIG. 3A-H: IP Preobese Body Weight. Relative body weight measurements for IP injected pre-obese mice. I-J: Body weight change. Changes in body weight compared using HFD control group as baseline value A1-F1: GTT. Blood glucose levels of peptide groups at endpoint, post-glucose injection (after 16 h fasting). A2-F2: ITT. Blood glucose levels of peptide groups at endpoint, post-insulin injection (after 6 h fasting).
FIG. 4A-F: SC Pre-obese Body Weight. Relative body weight measurements for SC injected pre-obese mice. G-H: Body weight change. Changes in body weight compared using HFD control group as baseline value. A1-F1: GTT. Blood glucose levels of peptide groups at endpoint, post-glucose injection (after 16 h fasting). A2-F2: ITT. Blood glucose levels of peptide groups at endpoint, post-insulin injection (after 6 h fasting).
FIG. 7A-F: Oral/Feeding Pre-obese Body Weight. Relative body weight measurements for orally administered pre-obese mice. A1-F1: GTT. Blood glucose levels at endpoint, post-glucose injection (after 16 h fasting). A2-F2: ITT. Blood glucose levels at endpoint, post-insulin injection (after 6 h fasting).
Prior to oral administration, peptides were administered to DIO mice via intraperitoneal (IP) and subcutaneous (SC) injections. This study was divided into two phases:
as §1
Prior to oral administration, GGR, RAK, AKD, full-length ATS, and scrambled RKG peptides were administered to OPM mice via IP and SC injections to further screen an ideal peptide composition. PBS was included as a vehicle group. GGR, RAK, and AKD peptides were discovered to impede body weight gain in OPM mice. GGR and RAK were effective when given IP injections and AKD was effective by SC injections (FIGS. 3, 4).

The subject of the next assay is 3T3-LI mature adipocytes. As to the kind of experiment: Oil Red O staining of lipid accumulation in adipocytes. Particulars: for number and size / morphology of lipid droplets vs. non-treated control: Oil Red O micrographs, peptides at 100 μM, Day 21, three times per week for three weeks; for reduction of lipid accumulation / lipid contents (in words): murine-based in vitro systems, mature adipocytes; for decrease in degree of lipid accumulation: quantitative Oil Red O analysis, Day 21. The format is cell-based, murine. On the procedure: FIG. 2A-G: Representative photomicrographs showing Oil Red O-stained mature adipocytes treated with peptides at 100 μM (Day 21). H: Quantitative analysis of the lipids accumulated in the adipocytes (Day 21). Control absorbance: 0.526 (Red line). I: Relative cell counts on day 21.
The effects of the minimal short peptides in blocking lipid accumulation in adipocytes were compared with their parent full-length peptide. After generating five different 3 amino acid fragments (KGG, GGR, GRA, RAK, and AKD) from the original ATS peptide (KGGRAKD (SEQ ID NO:1)), each peptide was administered to 3T3-LI pre-adipocytes in five varying concentrations. Peptides were treated to the adipocytes three times per week for three weeks. Oil Red O staining was utilized to assess the lipid contents in mature adipocytes in culture. The morphological characteristics of 3T3-LI mature adipocytes were observed by microscopy. […] Furthermore, the lipids were quantitatively analyzed. […] At the end point, the cell number was almost the same across the treatment groups, meaning that the reduction in lipid accumulation is not a consequence of toxicity of the peptides (FIG. 2I).
The number of viable cells is counted prior to Oil Red O staining using Cell Counting Kit 8 (Dojindo). This cell viability study allows one to determine potential toxicities of the peptides and compensate for cell number variation-causing artifacts. Oil Red O is dissolved in isopropanol at […] to create a working solution. 12 ml of Oil Red O working solution is mixed with 8 ml dH2O and incubated for 10 minutes. This solution is then filtered using a 0.2 μm syringe filter. Adipocytes seeded on 96-well plates are washed with PBS twice. 10% formaldehyde is added for initial fixation and the plates are incubated for at least 30 minutes. The formaldehyde is removed and the cells are once again washed twice, this time with dH2O. 60% isopropanol is added to each well. The plates are incubated for 5 minutes. The isopropanol is removed from the wells and replaced with Oil Red O working solution. The plates are incubated for an additional 10 minutes. The Oil Red O solution is removed and washed four times with dH2O. Lastly, digital micrographs of the lipid droplets in adipocytes are taken using a light microscope. After the staining protocol, all plates are washed three times with 60% isopropanol. Each time, 5 minutes of gentle rocking was used. The Oil Red O is extracted with 100% isopropanol with gentle rocking for 5 minutes. 200 μl isopropanol per well is used as a background to measure absorbance at 492 nm using a BioTek microplate reader.

The next assay has as its target T1, prohibitin (Mus musculus, UniProt P67778).
T1 construct: Fractionated proteins isolated from adipocytes were incubated with the ATS magnetic beads; endogenous in cells; probably 3T3-L1
T1 sequence (P67778 2-272 limits assumed): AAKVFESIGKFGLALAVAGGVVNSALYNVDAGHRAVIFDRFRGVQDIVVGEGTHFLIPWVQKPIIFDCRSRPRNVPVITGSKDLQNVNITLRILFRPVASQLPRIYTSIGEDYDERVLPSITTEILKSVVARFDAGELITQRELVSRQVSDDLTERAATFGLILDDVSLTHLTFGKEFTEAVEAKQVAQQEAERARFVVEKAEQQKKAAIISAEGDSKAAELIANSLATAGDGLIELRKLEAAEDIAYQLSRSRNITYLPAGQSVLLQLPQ
As to the kind of experiment: ATS/prohibitin binding by ATS magnetic bead immunoprecipitation and western blot. Particulars: fractionated proteins from adipocytes incubated with ATS magnetic beads, western blot. An excerpt:
FIG. 1A: ATS/prohibitin binding determined by immunoprecipitation and western blot. FIG. 1B: Location and degree of prohibitin expression in pre- or mature adipocytes. PM, plasma membrane; Cyt, Cytoplasm. C: Confocal micrographs showing the location of prohibitin in mature- or pre-adipocytes.
It was confirmed that prohibitin shifts its location to the cell membrane as adipogenesis progresses and ATS binds to prohibition. The ATS/prohibitin binding was verified in pre- or mature adipocytes (Won, Y. W. et al. Nat Mater 13, 1157-1164, (2014)). Fractionated proteins isolated from adipocytes were incubated with the ATS magnetic beads and the protein captured by ATS was identified by western blotting. […] Prohibitin is observed in several intracellular locations at varying expression levels depending on the degree of adipogenesis (Wang, P. et al. Cell Mol Life Sci 61, 2405-2417, (2004); Patel, N. et al. Proceedings of the National Academy of Sciences of the United States of America 107, 2503-2508, (2010)). The degree and location of prohibitin expression in pre- or mature adipocytes was determined. […] Confocal microscopy also verified the prohibitin expression on the cell membrane of mature adipocytes (FIG. 1C). High-level prohibitin expression on the cell membrane of mature adipocytes is important to the ATS/prohibitin interaction.

Assay [3] has as its system epididymal fat tissues of DIO mice. As to the kind of experiment: Histological analysis of fat pads (adipocyte number and size). Type of assay: in vivo. The protocol: FIG. 9. Histological analysis fat pads. An automated system detected and counted adipocytes (yellow line). Adipocyte number and size: average of 3 hpf images from 2 mice (total 6 images/group).
GGR, RAK, and AKD peptides were tested in OPM and OM mice by oral administration. […] In obesity progression, adipocytes increase in both number and size due to escalating lipid accumulation (Parlee, S. D., et al., Methods Enzymol 537, 93-122, (2014)). Using the methods described above, abdominal fat pads of GGR, RAK, AKD, or PBS-treated DIO mice were histologically analyzed. Epididymal fat tissues were harvested from two mice per experimental group. All samples were fixed in 4% paraformaldehyde, H&E-stained, and imaged. At a 10× magnification, adipocyte cell counting was performed on the digital slide images using an automated adipocyte counting macro with the ImageJ software. A default thresholding method was used and [cell] sizing boundaries of 40-40,000 were set. Limitations of the segmentation tool led to some erroneous selections or regions of interest (ROI), which were manually corrected by adding or erasing lines. The number of cells per representative field were then determined using the ROI manager in ImageJ. Two or three high power fields (hpf) per tissue and two tissue samples per group were analyzed to reduce variability. Average cell count for each group was calculated accordingly. Areas of all adipocytes of interest were measured using the ROI measurement tool (ImageJ) and average area per cell was calculated accordingly.
The primary function of adipocytes is to store energy in the form of lipids. The volume of lipid stored in an adipocyte cell increases as the third power of the diameter. Because mature adipocytes are composed of large lipid droplets that are surrounded by very thin cytoplasmic layers, the increase in volume of an adipocyte cell likely indicates increased lipid storage. Thus, smaller adipocyte size/area translates to reduced lipid accumulation.

The text below walks through data of patent US20240238362A1, “ANTI-OBESITY PEPTIDES AND USES THEREOF” (Arizona Board of Regents on Behalf of the University of …, priority 2020, published 2024).

Entries after “also recorded” stand apart in the source; their conditions may differ.

For RKG [reference compound], the “prevention of body weight gain” value in assay [1] (IP injections) is “did not show meaningful efficacy over the vehicle group; also recorded: no anti-obesity effects”; in assay [1] (SC injections) it was “no anti-obesity effects”; in assay [2] (IP injections), “did not show meaningful efficacy over the vehicle group; also recorded: no anti-obese effects; also recorded: no anti-obesity effects”; in assay [2] (SC injections), “no anti-obese effects; also recorded: no anti-obesity effects”.
On to “KGGRAKD (SEQ ID NO:1) [ATS, parent full-length peptide, reference compound]”, for which the “number and size / morphology of lipid droplets vs. non-treated control” value in the assay on 3T3-LI mature adipocytes is recorded as “smaller than those in the non-treated control”. In the assay with prohibitin, the ATS/prohibitin binding result is “specifically binds to prohibitin”.
For RAK, the “prevention of body weight gain” value is reported as “positive effects on prevention of body weight gain” in assay [1] (IP injections), “effective” in assay [1] (SC injections) and “positive effects on prevention of body weight gain; also recorded: effective” in assay [2] (IP injections). The “anti-obesity efficacy (body weight)” value in assay [1] (oral administration) is recorded as “has anti-obesity efficacy in both models”; in assay [2], “efficacious over GGR; also recorded: has anti-obesity efficacy in both models”. Further, in the assay on 3T3-LI mature adipocytes, the “number and size / morphology of lipid droplets vs. non-treated control” value is “smaller than those in the non-treated control”. In addition, the “reduction of lipid accumulation / lipid contents (in words)” value in the assay on 3T3-LI mature adipocytes is “able to reduce lipid contents in mature Adipocytes; also recorded: effective in reducing lipid accumulation”. The “decrease in degree of lipid accumulation” value with 3T3-LI mature adipocytes is listed as “approximately 20%”. Also, in assay [3] (DIO mice), the “activity by histological analysis of the fat pads” value is reported as “more active than GGR; also recorded: highest efficacy”. Also, the “average cell count per field” value in assay [3] (H&E-stained epididymal fat, 10× magnification, among GGR, RAK, AKD, PBS groups) was “highest average cell count per field”. Further, the “average adipocyte area per cell” value in assay [3] (H&E-stained epididymal fat, among GGR, RAK, AKD, PBS groups) is “lowest average adipocyte area per cell”.
Regarding AKD, the “prevention of body weight gain” value in assay [2] (SC injections) is recorded as “best working peptide; also recorded: effective”. Besides, the “anti-obesity efficacy (body weight)” value in assay [2] is recorded as “efficacious over GGR”. In the assay on 3T3-LI mature adipocytes, the “number and size / morphology of lipid droplets vs. non-treated control” value is “smaller than those in the non-treated control”; the “reduction of lipid accumulation / lipid contents (in words)” value is on record as “able to reduce lipid contents in mature Adipocytes; also recorded: effective in reducing lipid accumulation”; the “decrease in degree of lipid accumulation” value was “approximately 20%”.
In the case of GRA, in the assay with 3T3-LI mature adipocytes, the “number and size / morphology of lipid droplets vs. non-treated control” value is “moderate differences in the morphology of lipid droplets”.
For KGG, the “number and size / morphology of lipid droplets vs. non-treated control” value in the assay with 3T3-LI mature adipocytes is “moderate differences in the morphology of lipid droplets”.
As for GGR, the “prevention of body weight gain” value in assay [1] (IP injections) is “positive effects on prevention of body weight gain”. Further, in assay [1] (SC injections), the “prevention of body weight gain” value was “effective”. Besides, in assay [2] (IP injections), the “prevention of body weight gain” value is given as “positive effects on prevention of body weight gain; also recorded: effective”. Further, in the assay with 3T3-LI mature adipocytes, the “number and size / morphology of lipid droplets vs. non-treated control” value is listed as “smaller than those in the non-treated control”; the “reduction of lipid accumulation / lipid contents (in words)” value is given as “able to reduce lipid contents in mature Adipocytes; also recorded: effective in reducing lipid accumulation”; the “decrease in degree of lipid accumulation” value is given as “approximately 20%”.
